Experimental data published in publication PMC6828666, “Discovery of holoenzyme-disrupting chemicals as substrate-selective CK2 inhibitors” (Scientific Reports, 2019).
Where a name gives a salt, the structure may show the parent alone.

How the values were obtained:
[1] = target: [35S]methionine-labeled CK2α (human) (UniProt P68400); test: radioligand binding; biotinylated MBP-CK2β (250 ng/well) on streptavidin-coated 96-well plates; soluble [35S]methionine-labeled CK2α (10^5 cpm) with or without competitor; 50 mM Tris/HCl pH 7.2, 0.4 M NaCl; 1 h at room temperature, washed three times, scintillation counting
Sequence of [35S]methionine-labeled CK2α (human) (P68400 whole entry): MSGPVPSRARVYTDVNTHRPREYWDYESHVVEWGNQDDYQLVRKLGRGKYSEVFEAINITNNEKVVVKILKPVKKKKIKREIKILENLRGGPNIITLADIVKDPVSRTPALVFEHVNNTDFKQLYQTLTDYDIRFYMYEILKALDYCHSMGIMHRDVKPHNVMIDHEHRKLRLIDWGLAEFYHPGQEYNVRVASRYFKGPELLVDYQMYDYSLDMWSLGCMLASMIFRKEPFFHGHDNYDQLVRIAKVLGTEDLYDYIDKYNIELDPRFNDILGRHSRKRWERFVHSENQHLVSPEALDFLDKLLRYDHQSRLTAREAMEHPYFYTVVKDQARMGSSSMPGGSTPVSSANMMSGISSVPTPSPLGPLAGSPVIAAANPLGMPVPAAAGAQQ

CK2α = CK2α (Homo sapiens, UniProt P68400); test: SPR binding studies on captured GST-CK2α; conditions: surface plasmon resonance
Sequence of CK2α (P68400 whole entry): as above
Description: SPR competition studies (Fig. 2i) were performed using a BIAcore 3000 instrument (BIAcore AB) equipped with a CM5 sensor chip (BIAcore AB). After activation with a solution of N-hydroxysuccinimide and N-ethyl-N-(dimethylaminopropyl)carbodiimide hydrochloride (coupling solution BIAcore AB), the anti-GST antibody diluted at 30 μg/ml in 10 mM acetate buffer pH 5.0 was injected at a flow rate of 5 μL/min for 7 min. All the surfaces were blocked with a 3 min injection at 10 μL/min of 1 M ethanolamine, pH 8.0. GST-CK2α (50 μg/ml) was immobilized on the surface at a flow rate of 5 μL/min in HBS (10 mM Hepes pH 7.3, 0.15 M NaCl, 3 mM EDTA, 0.005% polysorbate 20). MBP-CK2β diluted at 50 μg/ml in HBS buffer was injected over the surface at a flow rate of 5 μL/min in presence of various compound 1 concentration. Regeneration of the surfaces was achieved by injection of 10 mM glycine-HCl pH 2.2. SPR binding studies (Supplementary Fig. S7) were performed using a Reichert SR7000DC instrument optical biosensor (Reichert Technologies) equipped with a CMD500m sensor chip obtained from XanTec Bioanalytics. CK2α was immobilized by a capturing approach using a monoclonal anti-GST antibody (27 kDa, Clone GST-R 6G9 produced in rat, SAB4200055 Sigma Aldrich). Prior to use, the anti-GST antibodies were purified twice by micro dialysis at 4 °C (Membrane: dialysis tubing benzoylated, 9 mm, D2272-5FT) in 10 mM sodium acetate, pH = 5. Anti-GST antibodies were immobilized using amine-coupling chemistry at 12 °C. The surfaces of all two flow cells were activated for 7 min with a 1:1 mixture of 0.1 M NHS (N-hydroxysuccinimide) and 0.1 M EDC (3-(N,N-dimethylamino) propyl-N-ethylcarbodiimide) at a flow rate of 10 μL/min. The antibody at a concentration of 30 μg/mL in 10 mM sodium acetate, pH 5.0, was immobilized at a density of 2000 RU on flow cell 2; flow cell 1 was left blank to serve as a reference surface. All the surfaces were blocked with a 3 min injection at 10 μL/min of 1 M ethanolamine, pH 8.0. GST tagged CK2α at a concentration of 50 μg/mL in 10 mM HEPES, 150 mM NaCl, 3 mM EDTA, 0.005% (v/v) polysorbate 20, pH = 7.4 was captured at a density of 900 RU on flow cell 2. In order to collect kinetic binding data, analytes in 10 mM HEPES, 150 mM NaCl, 3 mM EDTA, 0.005% (v/v) polysorbate 20, 1% DMSO (v/v), 100 μM ATP, pH = 7.4 were injected over the two flow cells at concentrations of 50, 25, 12.5, 6.25, 3.12, 1.56 μM at a flow rate of 25 μL/min and at a temperature of 25 °C. The complex was allowed to associate and dissociate for 120 s. Duplicate injections (in random order) of each sample and a buffer blank were flowed over the two surfaces. Affinities were obtained after treatments (DMSO calibration, blank and references subtractions) using the software Scrubber 2.0c.
Fig. S7. Binding kinetics of compounds 2-6 by surface plasmon resonance. For each compound, sensorgrams (black line) and global fits (orange line) are depicted with the corresponding chemical structure and the fitted kinetics parameters. Experiments show representative data of two identical repeats.

CK2α2β2 holoenzyme = target: T1, CK2α2β2 holoenzyme (Homo sapiens, UniProt P68400); test: CK2 kinase assay with CK2β-dependent peptide substrate (eIF2-derived); assay type: biochemical; conditions: compound at 50 μM; CK2β-dependent peptide substrate
T1 construct: made in house; host or cells: Escherichia coli (CK2α)
T1 sequence (P68400 whole entry): as above
Description: First, all the compounds were dissolved at 200 μM in 50 mM Tris-HCl pH 7.5 buffer containing 0.1 M NaCl and 5% DMSO; the compounds that precipitated under these conditions were discarded. The 32 remaining compounds were diluted at 200 μM in the kinase buffer and centrifuged at 14,000 g. The supernatant was then assayed for ability to inhibit phosphorylation of a CK2β-dependent peptide substrate. For this, a 22-residue long N-terminal fragment of the eukaryotic translation initiation factor 2 (eIF2), known to be exclusively phosphorylated by the CK2α2β2 holoenzyme[4] was used as a substrate. […]
Final concentration of ATP was 100 μM. Assays were performed under linear kinetic conditions for 5 min at room temperature before termination by the addition of 60 μL of 4% TCA. ^32P incorporation in peptide substrate was determined as previously described. […]

[2] = system: panels of different kinases; set-up: method as in PMID 28451126; conditions: cited from earlier work
MCF10A cells = test: Cell growth inhibition (IncuCyte); assay type: cell-based, human; conditions: 24 h
Description: Cells grown on 96-well flat-bottomed plates (Corning Falcon) were tracked using an Essen IncuCyte Zoom live-cell microscopy instrument, an automated live cell imager with high-throughput capabilities and built-in data analysis. Experiments were conducted at 37 °C and 5% CO2. The software incorporated into the IncuCyte Zoom was used to analyze the images.
MCF10A and MDA-MB231 cells were seeded into 96-well plates at a density (1 × 10^4 and 2 × 10^4 cells/well, respectively) and allowed to attach overnight. Bright field images were captured every 3 h for the duration of the experiment. The detection software was calibrated specifically for MCF10A and MDA-MB231 to ensure accurate distinction of cells from empty space. Cell proliferation data were obtained by the cell confluence increment in each of the treatments and expressed as percentage relative to that of control cells.
Fig. S9. […] (a) MCF10A cells were incubated with increasing concentrations of 6 for 24 h. (b) Inset: western blot analysis of CK2 subunits in parental MCF10A cells (WT) or CK2β knockdown MCF10A cells (∆CK2β). Uncropped blots are shown in Supplementary Fig. S16. MCF10A WT (r,p) or MCF10A ∆CK2β (○,●) were incubated with DMSO (r,○) or 50 μM 6 (p,●) for the indicated time. Cell growth was monitored using an Essen IncuCyte Zoom live-cell microscopy incubator. Images were captured every 15 min for the duration of the experiment. […]

Row | Kd (CK2α) [µM] | inhibition at 50 µM (CK2α2β2 holoenzyme) [%] | Compound | other results
1 | 44 ± 6 | 25 | CS(=O)(=O)NCCN1CCC(COC(=O)c2c[nH]c3ccc(F)cc23)CC1 [Compound 2, (1-(2-(Methylsulfonamido)ethyl)piperidin-4-yl)methyl 5-fluoro-1H-indole-3-carboxylate hydrochloride] | –
2 | 43 ± 2 | 66 | O=C(OCC1CCN(CCNS(=O)(=O)c2ccccc2)CC1)c1c[nH]c2ccc(F)cc12 [Compound 5, (1-(2-(Phenylsulfonamido)ethyl)piperidin-4-yl)methyl 5-fluoro-1H-indole-3-carboxylate hydrochloride] | –

Second part, the compound before the results:

Row | Compound | Kd (CK2α) [µM] | inhibition at 50 µM (CK2α2β2 holoenzyme) [%] | other results
3 | CK2β-derived cyclic peptide, Pc | – | – | percent inhibition of CK2α/CK2β complex formation at 60 μM [1]: 90%
4 | O=C(O)c1ccc2c(c1)nc(Nc1cccc(Cl)c1)c1ccncc12 [CX-4945] | – | – | Gini coefficient [2]: 0.62
5 | COc1[nH]c2ccc(F)cc2c1C(=O)OCC1CCN(CCNS(=O)(=O)c2ccccc2)CC1.Cl [Compound 6, 1-(2-(Phenylsulfonamido)ethyl)piperidin-4-yl)methyl 5-fluoro-2-methoxy-1H-indole-3-carboxylate hydrochloride] | 30 ± 2 | – | GI50 (MCF10A cells): 22 ± 3 µM
